# Read-outs that look alike come from different tables or passages of the source.
# Key:
# Format in all cases: cell-based, human
# [1] = tested on: MCF-7 cells; assay: MTT in vitro growth inhibition assay, MCF-7; conditions: Homo sapiens, two independent experiments
# Method: (§1) Human cancer cell lines were obtained from the American Type Culture Collection (ATCC, Manassas, Va., USA), the European Collection of Cell Culture (ECACC, Salisbury, UK), and the Deutsche Sammlung von Mikroorganismen und Zellkulturen (DSMZ, Braunschweig, Germany). Human cervical adenocarcinoma HeLa cells were cultured in DMEM supplemented with 10% fetal bovine serum (FBS). Human mammary carcinoma MCF-7 cells were cultured in RPMI supplemented with 10% FBS. The U87 cells (ATCC HTB-14) were cultured in DMEM culture medium, while the A549 cells (DSMZ ACC107) were cultured in RPMI culture medium supplemented with 10% heat-inactivated FBS. The GBM Hs683 (ATCC HTB-138) and the T98G (ATCC CRL-1690) cell lines were cultivated in DMEM supplemented with 10% FBS. The GBM U251 cells (ECACC code 09063001) were cultured in 10% MEM. The human uterine sarcoma MES-SA and MES-SA/Dx5 cells were cultured in RPMI-1640 medium supplemented with 10% FBS with MES SA/Dx5 maintained in the presence of 500 nM Doxorubicin (Sigma™). The U373 glioblastoma cells (ECACC 08061901) were cultured in RPMI culture medium supplemented with 10% heat-inactivated FBS.
# Spirodienones 4a-m were subjected to in vitro growth inhibition 3-(4,5-dimethylthiazol-2-yl)-2,5-diphenyltetrazolium bromide (MTT) assays against two cell lines, human HeLa cervical and MCF-7 breast adenocarcinomas.
# (§2) All compounds were dissolved in DMSO at a concentration of either 100 mM or 50 mM prior to cell treatment. The cells were trypsinized and seeded at various cell concentrations depending on the cell type. The cells were grown for 24 h to 72 h, treated with compounds at concentrations ranging from 0.001 to 100 μM, and incubated for 48, 72, or 96 h in 100 or 200 μL media depending on the cell line used. Cells treated with 0.1% DMSO were used as a negative control, and cells treated with 1 μM phenyl arsine oxide (PAO) were used as a positive control.
# To determine the activities of the compounds of the invention toward cancer cells, cell lines treated with different compounds were subjected to an in vitro MTT growth assay using human cervical cancer (HeLa) and human adenocarcinoma (MCF-7) cell lines. The MTT growth assay is a colorimetric assay that measures the metabolic activity of cells via reduction of 3-(4,5-dimethylthiazol-2-yl)-2,5-diphenyltetrazolium bromide (MTT). The reduction of MTT occurs in metabolically-active cells and is characterized by a purple color, which can be quantified via spectrophotometry. A higher absorbance reading indicates a metabolically-active cell, while a low absorbance reading indicates low metabolic activity due to, for example, inhibition of cellular proliferation or cell death.
# The values in TABLE 4 are the mean and standard deviation calculated from two independent experiments, which were performed in 4 replicates.
# [2] = tested on: T98G cells; assay: MTT growth inhibition, T98G glioma; conditions: Homo sapiens, T98G
# Method: as §1, §2
# Compound 4l was evaluated for in vitro growth inhibition against a panel of cancer cell lines, including U373, U251, U87, T98G, human GBM, and A549 NSCLC. […] Compound 4l was also evaluated for in vitro growth inhibition against the apoptosis-sensitive tumor model Hs683 anaplastic oligodendroglioma as a reference.
# (§3) Due to their high potencies, compounds 5l and 5g were used to determine the effects of the compounds on drug-resistant tumor cells. Drug-resistant cell lines (i.e., glioma: Hs683, U373, U251, U87, T98G; lung cancer: A549, H2073; uterine carcinoma: MES-SA/Dx5) were complemented with drug-sensitive cell lines, H1993 lung cancer and MES-SA uterine cancer, which were used as controls. Bulbispermine and paclitaxel were also used as controls. The GI50 values were calculated after 48-96 hours of treatment with the indicated compounds in replicate using the MTT growth assay.
# [3] = tested on: MES-SA/Dx5 cells; assay: MTT growth inhibition, MDR uterine sarcoma MES-SA/Dx5; conditions: for GI50: Homo sapiens, MES-SA/Dx5, MTT
# Method: as §1, §2
# Compound 4l was also evaluated against the MDR uterine sarcoma cell line (MES-SA/Dx5 to evaluate whether the compounds of the invention were substrates for the MDR cancer efflux systems. The MES-SA/Dx5 cell line was established from the parent uterine sarcoma MES-SA, grown in the presence of increasing concentrations of doxorubicin and is known to be resistant to a number of P-gp substrates.
# The selection of doxorubicin-resistant cells (MES-SA/Dx5 cell line) was performed by splitting the cells and allowing the cells to adhere overnight. The next day, the cells were initially exposed to a DOX concentration of 100 nM, which represented the GI50 concentration. The cells were maintained at this DOX concentration until their growth rate reached that of the untreated cells. The DOX concentration was then increased in two-fold increments following the same growth criteria at each concentration to a final DOX concentration of 500 nM. Each new DOX concentration required approximately 2 passages to reach the growth rate of the untreated cells.
# as §3
# [4] = tested on: five GBM cell cultures (U373, T98G, U251, Hs683, U87); assay: MTT growth curves of five GBM cell cultures (populations resistant to proapoptotic agents)
# Text: Cells resistant to various pro-apoptotic stimuli often contain a sensitive population that quickly response to pro-apoptotic agents. However, a significant portion of the cells in a culture resist the effects of pro-apoptotic agents even at concentrations 100- or 1000-fold their GI50 values.
"GI50 ([1]; MCF7, Table 4, 48-hour treatment, mean and standard deviation, read-out: MCF-7 Cell Viability GI50) [µM]","GI50 ([2]; Table 5, 48-96 hours of treatment, read-out: GI50, Glioma T98G) [µM]","GI50 ([3]; Table 5, 48-96 hours of treatment, read-out: GI50, Sarcoma MES-SA/Dx5) [µM]","GI50 ([1]; MCF7, MCF-7, 48 h treatment, ± SD, read-out: cell viability GI50, MCF-7) [µM]","GI50 ([2]; Table 3, 48-96 h treatment, read-out: GI50 in vitro values, glioma T98G) [µM]","GI50 ([3]; Table 3, 48-96 h treatment, read-out: GI50 in vitro values, uterine sarcoma MES-SA/Dx5) [µM]",SMILES,"dose-dependent effects against cell populations resistant to proapoptotic agents ([4]; U373, T98G, U251, Hs683, U87, MTT, FIG. 8)","variation in activity, MDR cell line versus parent cell line ([3]; MES-SA/Dx5 versus MES-SA)","resistant populations in growth curves of GBM cell cultures ([4]; 5 GBM cell lines, FIG. 1, one experiment in six replicates)"
4.7 ± 0.1,7,7,,,,O=C1C=C[C@]23CC[N@](Cc4c2sc2ccccc42)[C@H]3C1 [Compound 5l],dose-dependent effects,,
,,,7 ± 1,15,5,O=C1C=CC2(C=C1)CCN(C(=O)C(F)(F)F)Cc1c2sc2ccccc12 [Compound 4l],,small variation in activity,absence of such resistant populations
